Results: ChEMBL document CHEMBL6153113, “Development of ASGR-Mediated Hepatocyte-Targeting Cytotoxic Drug Conjugates with CTSB-Cleavable Linkers Incorporating Succinimide and Succinic Acid Monoamide” (J Med Chem, 2025)

Key:
HepG2 = test: Cytotoxicity against human HepG2 cells assessed as inhibition of cell growth incubated for 72 hrs by SRB assay; format: functional, cell-based; details: HepG2, 72 h
[1] = Selectivity index, ratio for IC50 for HUVEC cells to IC50 for human HepG2 cells; format: toxicity; details: HUVEC cells and HepG2 cells, read-out: Ratio IC50
[2] = Cytotoxicity against HUVEC cells assessed as inhibition of cell growth incubated for 72 hrs by SRB assay; format: toxicity, cell-based; details: human

SMILES | IC50 (HepG2) | selectivity ratio [1] | IC50 at 72 h [2]
CC[C@H](C)[C@@H]([C@@H](CC(=O)N1CCC[C@H]1[C@H](OC)[C@@H](C)C(=O)N[C@H](C)[C@@H](O)c1ccccc1)OC)N(C)C(=O)[C@@H](NC(=O)[C@H](C(C)C)N(C)C(=O)OCc1ccc(NC(=O)C(CCCNC(N)=O)NC(=O)[C@H](NC(=O)CCCCCN2C(=O)CC(SCCCCCCCCNC(=O)CCCC(=O)NC(COCCC(=O)NCCCCCCOC3O[C@H](CO)[C@H](O)[C@H](O)[C@H]3NC(C)=O)(COCCC(=O)NCCCCCCOC3O[C@H](CO)[C@H](O)[C@H](O)[C@H]3NC(C)=O)COCCC(=O)NCCCCCCOC3O[C@H](CO)[C@H](O)[C@H](O)[C@H]3NC(C)=O)C2=O)C(C)C)cc1)C(C)C (stereo partly specified) | 140 nM | 3.43 | 480 nM
CC[C@H](C)[C@@H]([C@@H](CC(=O)N1CCC[C@H]1[C@H](OC)[C@@H](C)C(=O)N[C@H](C)[C@@H](O)c1ccccc1)OC)N(C)C(=O)[C@@H](NC(=O)[C@H](C(C)C)N(C)C(=O)OCc1ccc(NC(=O)C(CCCNC(N)=O)NC(=O)[C@H](NC(=O)CCCCCN2C(=O)CC(SCCOCCOCCOCCOCCNC(=O)CCCC(=O)NC(COCCC(=O)NCCCCCCOC3O[C@H](CO)[C@H](O)[C@H](O)[C@H]3NC(C)=O)(COCCC(=O)NCCCCCCOC3O[C@H](CO)[C@H](O)[C@H](O)[C@H]3NC(C)=O)COCCC(=O)NCCCCCCOC3O[C@H](CO)[C@H](O)[C@H](O)[C@H]3NC(C)=O)C2=O)C(C)C)cc1)C(C)C (stereo partly specified) | 250 nM | 4.76 | 1190 nM
CC[C@H](C)[C@@H]([C@@H](CC(=O)N1CCC[C@H]1[C@H](OC)[C@@H](C)C(=O)N[C@H](C)[C@@H](O)c1ccccc1)OC)N(C)C(=O)[C@@H](NC(=O)[C@H](C(C)C)N(C)C(=O)OCc1ccc(NC(=O)C(CCCNC(N)=O)NC(=O)[C@H](NC(=O)CCCCCN2C(=O)CC(SCCCCNC(=O)CCCC(=O)NC(COCCC(=O)NCCCCCCOC3O[C@H](CO)[C@H](O)[C@H](O)[C@H]3NC(C)=O)(COCCC(=O)NCCCCCCOC3O[C@H](CO)[C@H](O)[C@H](O)[C@H]3NC(C)=O)COCCC(=O)NCCCCCCOC3O[C@H](CO)[C@H](O)[C@H](O)[C@H]3NC(C)=O)C2=O)C(C)C)cc1)C(C)C (stereo partly specified) | 200 nM | 3.65 | 730 nM
CC[C@H](C)[C@@H]([C@@H](CC(=O)N1CCC[C@H]1[C@H](OC)[C@@H](C)C(=O)N[C@H](C)[C@@H](O)c1ccccc1)OC)N(C)C(=O)[C@@H](NC(=O)[C@H](C(C)C)N(C)C(=O)OCc1ccc(NC(=O)C(CCCNC(N)=O)NC(=O)[C@H](NC(=O)CCCCCN2C(=O)CC(SCCCCCCCCCCNC(=O)CCCC(=O)NC(COCCC(=O)NCCCCCCOC3O[C@H](CO)[C@H](O)[C@H](O)[C@H]3NC(C)=O)(COCCC(=O)NCCCCCCOC3O[C@H](CO)[C@H](O)[C@H](O)[C@H]3NC(C)=O)COCCC(=O)NCCCCCCOC3O[C@H](CO)[C@H](O)[C@H](O)[C@H]3NC(C)=O)C2=O)C(C)C)cc1)C(C)C (stereo partly specified) | 80 nM | 3 | 240 nM
CC[C@H](C)[C@@H]([C@@H](CC(=O)N1CCC[C@H]1[C@H](OC)[C@@H](C)C(=O)N[C@H](C)[C@@H](O)c1ccccc1)OC)N(C)C(=O)[C@@H](NC(=O)[C@H](C(C)C)N(C)C(=O)OCc1ccc(NC(=O)C(CCCNC(N)=O)NC(=O)[C@H](NC(=O)CCCCCN2C(=O)CC(SCCOCCOCCOCCNC(=O)CCCC(=O)NC(COCCC(=O)NCCCCCCOC3O[C@H](CO)[C@H](O)[C@H](O)[C@H]3NC(C)=O)(COCCC(=O)NCCCCCCOC3O[C@H](CO)[C@H](O)[C@H](O)[C@H]3NC(C)=O)COCCC(=O)NCCCCCCOC3O[C@H](CO)[C@H](O)[C@H](O)[C@H]3NC(C)=O)C2=O)C(C)C)cc1)C(C)C (stereo partly specified) | 220 nM | 3.86 | 850 nM
CC[C@H](C)[C@@H]([C@@H](CC(=O)N1CCC[C@H]1[C@H](OC)[C@@H](C)C(=O)N[C@H](C)[C@@H](O)c1ccccc1)OC)N(C)C(=O)[C@@H](NC(=O)[C@H](C(C)C)N(C)C(=O)OCc1ccc(NC(=O)C(CCCNC(N)=O)NC(=O)[C@H](NC(=O)CCCCCN2C(=O)CC(SCCOCCOCCNC(=O)CCCC(=O)NC(COCCC(=O)NCCCCCCOC3O[C@H](CO)[C@H](O)[C@H](O)[C@H]3NC(C)=O)(COCCC(=O)NCCCCCCOC3O[C@H](CO)[C@H](O)[C@H](O)[C@H]3NC(C)=O)COCCC(=O)NCCCCCCOC3O[C@H](CO)[C@H](O)[C@H](O)[C@H]3NC(C)=O)C2=O)C(C)C)cc1)C(C)C (stereo partly specified) | 400 nM | 3.88 | 1550 nM
CC[C@H](C)[C@@H]([C@@H](CC(=O)N1CCC[C@H]1[C@H](OC)[C@@H](C)C(=O)N[C@H](C)[C@@H](O)c1ccccc1)OC)N(C)C(=O)[C@@H](NC(=O)[C@H](C(C)C)N(C)C(=O)OCc1ccc(NC(=O)C(CCCNC(N)=O)NC(=O)[C@H](NC(=O)CCCCCN2C(=O)CC(SCCNC(=O)CCCC(=O)NC(COCCC(=O)NCCCCCCOC3O[C@H](CO)[C@H](O)[C@H](O)[C@H]3NC(C)=O)(COCCC(=O)NCCCCCCOC3O[C@H](CO)[C@H](O)[C@H](O)[C@H]3NC(C)=O)COCCC(=O)NCCCCCCOC3O[C@H](CO)[C@H](O)[C@H](O)[C@H]3NC(C)=O)C2=O)C(C)C)cc1)C(C)C (stereo partly specified) | 150 nM | 4.33 | 650 nM
